One may read the Ki as a measure of affinity in units of concentration, obtained from inhibition or displacement. As usually defined, the IC50 is the concentration that inhibits the measured activity by half. Read a high IC50 as lower potency.

The text below walks through data of patent US20240217967A1, “INDOLINE DERIVATIVES AS DDRS INHIBITORS” (CHIESI FARMACEUTICI S.P.A., priority 2021, published 2024).

Several values for one entry are separate records, joined by “and”; a condition that tells them apart may be missing. Equal values may be shown once. Read-outs that look alike come from different tables or passages of the source. Bounds are passed on as bounds.

Test [1] deals with T1, DDR1 (Homo sapiens, UniProt Q08345). The experiment in a line: DDR1 LanthaScreen Europium Kinase Binding assay. The method, then: (§1) DDR1 and DDR2 binding assays were performed using Life Technologies LanthaScreen™ Europium Kinase Binding assay. The compounds were incubated with 5 nM DDR1 (Carna Biosciences) or 5 nM DDR2 (Life Technologies) for 1 hour at room temperature in white 384-well OptiPlate (PerkinElmer), containing 20 nM or 10 nM Kinase Tracer 178 respectively and 2 nM Europium labelled anti-GST antibody (Life Technologies) in assay buffer (50 mM HEPES pH 7.5, 10 mM MgCI2, 1 mM EGTA and 0.01% BRIJ35). The ratio of fluorescence emission 665 nm/615 nm after excitation at 340 nm was obtained using the Tecan Spark 20M plate reader. IC50 values were determined in GraphPad Prism 7.0 software, using 4 parameter model: log(inhibitor) vs. response. IC50 values were converted in Ki using the Cheng-Prusoff equation (Ki=IC50/(1+[Tracer]/Kd).

Test [2] deals with T2, DDR2 (Homo sapiens, UniProt Q16832).
T2 sequence (Q16832 22-855): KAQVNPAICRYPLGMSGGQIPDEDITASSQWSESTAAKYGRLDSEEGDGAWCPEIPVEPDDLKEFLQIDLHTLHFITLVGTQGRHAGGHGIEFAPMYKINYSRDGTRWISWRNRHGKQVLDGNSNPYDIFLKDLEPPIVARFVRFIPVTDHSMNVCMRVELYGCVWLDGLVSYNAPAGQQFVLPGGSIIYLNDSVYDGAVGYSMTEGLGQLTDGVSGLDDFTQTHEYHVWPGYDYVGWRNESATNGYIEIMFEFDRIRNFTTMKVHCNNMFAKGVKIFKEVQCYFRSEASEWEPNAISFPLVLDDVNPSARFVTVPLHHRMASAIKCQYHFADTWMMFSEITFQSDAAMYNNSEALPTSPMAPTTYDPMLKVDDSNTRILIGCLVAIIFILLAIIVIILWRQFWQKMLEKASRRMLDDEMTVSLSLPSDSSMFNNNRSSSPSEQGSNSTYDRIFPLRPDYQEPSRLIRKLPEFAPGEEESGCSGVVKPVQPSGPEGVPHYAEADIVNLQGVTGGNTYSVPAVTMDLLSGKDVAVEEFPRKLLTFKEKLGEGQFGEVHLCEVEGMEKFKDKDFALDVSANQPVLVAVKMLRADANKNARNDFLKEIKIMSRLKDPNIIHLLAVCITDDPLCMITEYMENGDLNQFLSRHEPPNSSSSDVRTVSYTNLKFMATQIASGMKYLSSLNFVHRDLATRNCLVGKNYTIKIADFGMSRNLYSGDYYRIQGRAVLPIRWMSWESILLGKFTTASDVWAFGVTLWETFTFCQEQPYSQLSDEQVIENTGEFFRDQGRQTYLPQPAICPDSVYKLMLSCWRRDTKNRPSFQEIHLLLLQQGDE
The experiment in a line: DDR2 LanthaScreen Europium Kinase Binding assay. The method, then: as §1
On the technique in general: Time-resolved FRET reads energy transfer from a long-lived donor to a nearby acceptor.

Test [3] deals with T1, DDR1. The test can be described thus: DDR1 cell based assay (PathHunter U2OS DDR1, collagen II stimulation). The following applies: U2OS-DDR1 cells, bovine Type II Collagen stimulation. The method, then: The inhibition of DDR1 receptor activation by compounds was evaluated by PathHunter® U2OS DDR1 assay (Eurofins DiscoverX), according to the manufacturer's instructions. Briefly, U2OS-DDR1 cells were seeded in white 384-well plates at a density of 5000 cells/well and incubated for 2 hours at 37° C. and 5% CO2. Cells were then treated with compounds at different concentrations and incubated for 30 minutes, before stimulation with bovine Type II Collagen 20 μg/ml and incubation overnight at 37° C. and 5% CO2. PathHunter Detection Reagents were prepared according to the protocol provided by DiscoverX and 20 μl/well of this mix were added to each well. After incubating the plates for 1 hour at room temperature in the dark, luminescence signal was acquired with a plate reader. Raw data were normalized to vehicle control (0% for normalization) and positive control (100% for normalization; cells treated with 20 μg/ml collagen II) and IC50 parameters were calculated in GraphPad Prism 8.0 software, using sigmoidal dose-response curve fitting with variable slope.

[4] abbreviates: binding affinity, IC50 converted in Ki using Cheng-Prusoff, read-out: Ki DDR1.
Setting [5] is: binding affinity, IC50 converted in Ki using Cheng-Prusoff, read-out: Ki DDR2.
Where [6] appears, read: binding assay, Ki from IC50 by Cheng-Prusoff, read-out: DDR1 Ki.
Setting [7] is: binding assay, Ki from IC50 by Cheng-Prusoff, read-out: DDR2 Ki.

T1 sequence (Q08345 19-913): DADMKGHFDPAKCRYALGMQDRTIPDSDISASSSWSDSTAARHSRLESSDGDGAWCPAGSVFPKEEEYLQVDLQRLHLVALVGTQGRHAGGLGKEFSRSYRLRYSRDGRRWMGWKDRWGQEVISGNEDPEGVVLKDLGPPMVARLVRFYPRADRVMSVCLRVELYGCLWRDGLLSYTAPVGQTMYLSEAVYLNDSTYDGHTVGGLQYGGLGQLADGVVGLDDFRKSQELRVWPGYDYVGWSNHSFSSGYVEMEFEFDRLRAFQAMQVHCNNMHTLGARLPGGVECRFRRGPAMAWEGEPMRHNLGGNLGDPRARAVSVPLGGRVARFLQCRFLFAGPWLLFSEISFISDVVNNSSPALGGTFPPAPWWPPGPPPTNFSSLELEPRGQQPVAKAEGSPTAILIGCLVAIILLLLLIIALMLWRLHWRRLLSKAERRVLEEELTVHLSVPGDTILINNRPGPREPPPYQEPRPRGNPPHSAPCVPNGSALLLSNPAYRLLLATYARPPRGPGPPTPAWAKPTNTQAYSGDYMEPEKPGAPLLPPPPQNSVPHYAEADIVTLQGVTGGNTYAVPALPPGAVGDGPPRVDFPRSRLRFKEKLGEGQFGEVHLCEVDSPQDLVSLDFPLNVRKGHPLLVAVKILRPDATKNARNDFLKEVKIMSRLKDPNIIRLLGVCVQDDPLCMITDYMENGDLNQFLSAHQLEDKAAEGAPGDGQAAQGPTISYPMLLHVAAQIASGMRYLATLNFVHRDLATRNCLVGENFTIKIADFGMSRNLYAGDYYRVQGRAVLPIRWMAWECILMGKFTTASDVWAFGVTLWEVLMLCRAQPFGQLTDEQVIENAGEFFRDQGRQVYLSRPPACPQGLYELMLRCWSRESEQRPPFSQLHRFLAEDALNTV

As to `CN1CCN(Cc2cc(C(=O)Nc3ccc4c(c3)N(Cc3cnc5cnccn35)CC4)cc(C(F)(F)F)c2)CC1` [Example 18, N-(1-(imidazo[1,2-a]pyrazin-3-ylmethyl)indolin-6-yl)-3-((4-methylpiperazin-1-yl)methyl)-5-(trifluoromethyl)benzamide], the inhibitory constant (Ki) in test [1] (setting [4]) and in test [2] (setting [5]) was below 25 nM throughout. In test [3], the IC50 fell in the range of 25 to 50 nM.

With `O=C(Nc1cc(OCCN2CCCC2)cc(C(F)(F)F)c1)c1ccc2c(c1)N(Cc1cnc3cnccn13)CC2` [Example 52, 1-(imidazo[1,2-a]pyrazin-3-ylmethyl)-N-(3-(2-(pyrrolidin-1-yl)ethoxy)-5-(trifluoromethyl)phenyl)indoline-6-carboxamide], the Ki in test [1] (setting [4]) and in test [2] (setting [5]) was below 25 nM throughout. Besides, the IC50 in test [3] fell in the range of 50 to 80 nM.

`CC(C)(C)c1cc(NC(=O)c2ccc3c(c2)N(Cc2cnc4[nH]ncc4c2)CC3)on1` [Example 78, 1-((1H-pyrazolo[3,4-b]pyridin-5-yl)methyl)-N-(3-(tert-butyl)isoxazol-5-yl)indoline-6-carboxamide]: the Ki in test [1] (setting [4]) and in test [2] (setting [5]) was below 25 nM throughout. Moreover, the IC50 in test [3] was below 25 nM.

As for `CN1CCN(Cc2cc(C(=O)Nc3ccc4c(c3)N(C(=O)c3cnc5ccccn35)CC4)cc(C(F)(F)F)c2)CC1` [Example 16, N-(1-(imidazo[1,2-a]pyridine-3-carbonyl)indolin-6-yl)-3-((4-methylpiperazin-1-yl)methyl)-5-(trifluoromethyl)benzamide], the inhibition constant (Ki) in test [1] (setting [4]) and in test [2] (setting [5]) was below 25 nM each time. For the same molecule, the IC50 in test [3] was in the range of 25 to 50 nM.

Consider `O=C(Nc1cccc(C(F)(F)F)c1)c1ccc2c(c1)N(Cc1cnc3ccnn3c1)CC2` [Example 63, 1-(pyrazolo[1,5-a]pyrimidin-6-ylmethyl)-N-(3-(trifluoromethyl)phenyl)indoline-6-carboxamide], for which the inhibition constant (Ki) in test [1] (setting [4]) and in test [2] (setting [5]) was below 25 nM in each case. The molecule further came in with an IC50 in test [3] of 50 to 80 nM.

With `O=C(Nc1cc(C(F)(F)F)ncn1)c1ccc2c(c1)N(Cc1cnc3cnccn13)CC2` [Example 88], the Ki in test [1] (setting [4]) and in test [2] (setting [5]) was below 25 nM each time. Besides, in test [3], the IC50 lay in the range of 50 to 80 nM.

As to `O=C(Nc1cccc(C(F)(F)F)c1)c1ccc2c(c1)N(Cc1ccc3[nH]cnc3c1)CC2` [Example 60, 1-((1H-benzo[d]imidazol-5-yl)methyl)-N-(3-(trifluoromethyl)phenyl)indoline-6-carboxamide], the Ki is below 25 nM in test [1] (setting [4]) and 50 to 80 nM in test [2] (setting [5]). The same molecule yielded an IC50 in test [3] of 50 to 80 nM.

`CN1CCN(Cc2cc(C(=O)Nc3ccc4c(c3)N(C(=O)Cc3cnc5ccccn35)CC4)cc(C(F)(F)F)c2)CC1` [Example C2, N-(1-(2-(imidazo[1,2-a]pyridin-3-yl)acetyl)indolin-6-yl)-3-((4-methylpiperazin-1-yl)methyl)-5-(trifluoromethyl)benzamide]: the Ki in test [1] (setting [6]) was determined as 600 nM; in test [2] (setting [7]), 58000 nM.

Consider `Cc1cn(-c2cc(NC(=O)c3ccc4c(c3)N(Cc3ccc5ccncc5c3)CC4)cc(C(F)(F)F)c2)cn1` [Example 5, 1-(isoquinolin-7-ylmethyl)-N-(3-(4-methyl-1H-imidazol-1-yl)-5-(trifluoromethyl)phenyl)indoline-6-carboxamide], for which the results for the Ki in test [1] (setting [4]) and in test [2] (setting [5]) were 25 to 50 nM and 50 to 80 nM, respectively. The same molecule registered a concentration for half-maximal inhibition (IC50) in test [3] of 25 to 50 nM.

Consider `O=C(Nc1cc(F)cc(C(F)(F)F)c1)c1ccc2c(c1)N(Cc1cnc3cnccn13)CC2` [Example 41, N-(3-fluoro-5-(trifluoromethyl)phenyl)-1-(imidazo[1,2-a]pyrazin-3-ylmethyl)indoline-6-carboxamide], for which the Ki in test [1] (setting [4]) and in test [2] (setting [5]) was below 25 nM throughout. This molecule showed an IC50 in test [3] of 25 to 50 nM.

Take `Cc1n[nH]c2ncc(CN3CCc4ccc(C(=O)Nc5cc(CN6CC[C@@H](N(C)C)C6)cc(C(F)(F)F)c5)cc43)cc12` [Example 72, (R)-N-(3-((3-(dimethylamino)pyrrolidin-1-yl)methyl)-5-(trifluoromethyl)phenyl)-1-((3-methyl-1H-pyrazolo[3,4-b]pyridin-5-yl)methyl)indoline-6-carboxamide]: the inhibition constant (Ki) in test [1] (setting [4]) and in test [2] (setting [5]) was below 25 nM throughout. Besides, the IC50 in test [3] was below 25 nM.

Regarding `Cc1cn(-c2cc(NC(=O)c3ccc4c(c3)N(Cc3ccc5[nH]ncc5c3)CC4)cc(C(F)(F)F)c2)cn1` [Example 8, 1-((1H-indazol-5-yl)methyl)-N-(3-(4-methyl-1H-imidazol-1-yl)-5-(trifluoromethyl)phenyl)indoline-6-carboxamide], the Ki in test [1] (setting [4]) and in test [2] (setting [5]) was 25 to 50 nM in each case. Also, in test [3], the IC50 lay within 50 to 80 nM.

Turning to `CN(C)Cc1cc(NC(=O)c2ccc3c(c2)N(Cc2cnc4cnccn24)CC3)cc(C(F)(F)F)c1` [Example 51, N-(3-((dimethylamino)methyl)-5-(trifluoromethyl)phenyl)-1-(imidazo[1,2-a]pyrazin-3-ylmethyl)indoline-6-carboxamide], the Ki in test [1] (setting [4]) and in test [2] (setting [5]) was below 25 nM in each case. The IC50 in test [3] is 25 to 50 nM.

Regarding `Cc1n[nH]c2ncc(CN3CCc4ccc(C(=O)Nc5cc(CN6CCN(C)CC6)nc(C(F)(F)F)c5)cc43)cc12` [Example 81, 1-((3-methyl-1H-pyrazolo[3,4-b]pyridin-5-yl)methyl)-N-(2-((4-methylpiperazin-1-yl)methyl)-6-(trifluoromethyl)pyridin-4-yl)indoline-6-carboxamide], the Ki in test [1] (setting [4]) and in test [2] (setting [5]) was below 25 nM throughout. In test [3], this molecule gave an IC50 below 25 nM.

As for `O=C(Nc1cccc(OC(F)(F)F)c1)c1ccc2c(c1)N(Cc1cnc3ccccn13)CC2` [Example 55, 1-(imidazo[1,2-a]pyridin-3-ylmethyl)-N-(3-(trifluoromethoxy)phenyl)indoline-6-carboxamide], the inhibitory constant (Ki) is below 25 nM in test [1] (setting [4]) and 25 to 50 nM in test [2] (setting [5]). In test [3], this molecule showed a half-maximal inhibitory concentration (IC50) below 25 nM.

As to `CC1CN(Cc2cnc3cnccn23)c2cc(C(=O)Nc3cncc(C(F)(F)F)c3)ccc21` (stereo not shown) [Example 92, 1-(imidazo[1,2-a]pyrazin-3-ylmethyl)-3-methyl-N-(5-(trifluoromethyl)pyridin-3-yl)indoline-6-carboxamide], the Ki in test [1] (setting [4]) and in test [2] (setting [5]) was below 25 nM throughout. Further, the IC50 in test [3] was 25 to 50 nM.

As to `CN(C)Cc1c[nH]c2ncc(CN3CCc4ccc(C(=O)Nc5cncc(C(F)(F)F)c5)cc43)cc12` [Example 83, 1-((3-((dimethylamino)methyl)-1H-pyrrolo[2,3-b]pyridin-5-yl)methyl)-N-(5-(trifluoromethyl)pyridin-3-yl)indoline-6-carboxamide], the Ki in test [1] (setting [4]) and in test [2] (setting [5]) was below 25 nM each time. This molecule yielded a half-inhibitory concentration (IC50) in test [3] below 25 nM.

For `CN1CCN(Cc2cc(NC(=O)c3ccc4c(c3)N(C(=O)Cc3cnc5ccccn35)CC4)cc(C(F)(F)F)c2)CC1` [Example C1, 1-(2-(imidazo[1,2-a]pyridin-3-yl)acetyl)-N-(3-((4-methylpiperazin-1-yl)methyl)-5-(trifluoromethyl)phenyl)indoline-6-carboxamide], the Ki in test [1] (setting [6]) is > 600 nM and 58000 nM; in test [2] (setting [7]) it was 58000 nM.
